Patent publication US8653110B2, “Active compound combination comprising azadirachtin and a substituted enaminocarbonyl compound” (Bayer CropScience AG, priority 2010, dated 2014)

What was measured:
Spodoptera exigua = Spodoptera exigua caterpillars on carnations, feeding damage (Example 1); type: in vivo; details: for Day 7 reduction of feeding damage in %: Day 7, (I-1) 150, azadirachtin 30, (I-1)+azadirachtin 150+30, imidacloprid 100 g of active compound/ha; for Day 32 reduction of feeding damage in %: Day 32, (I-1) 150, azadirachtin 30, (I-1)+azadirachtin 150+30, imidacloprid 100 g of active compound/ha; for Day 40 reduction of feeding damage in %: Day 40, (I-1) 150, azadirachtin 30, (I-1)+azadirachtin 150+30, imidacloprid 100 g of active compound/ha
Experimental: Example 1 describes the effect of the combination according to the invention on caterpillars of the owlet moth (Spodoptera exigua) on carnations (Dianthus caryophyllus). Azadirachtin was employed as NeemAzal® from Trifolio GmbH. The test was carried out according to EPPO guidelines PP 1/152 (2), PP 1/181 (3), PP 1/135 (3) and PP 1/210 (1) with 4 repetitions of in each case 10 plants. At the start of the infection, the plants were treated as follows: • 1. untreated • 2. compound (I-1) as SL 200 (17% strength), 150 g of active compound/ha • 3. azadirachtin 30 g of active compound/ha • 4. compound (I-1) as SL 200+azadirachtin, 150+30 g of active compound/ha • 5. positive control: imidacloprid 100 g of active compound/ha
The spray solution was prepared by mixing commercial formulations and using water to adjust to the concentration mentioned. The application rate was 1000 l/ha. 3 Applications were carried out at intervals of 10-14 days. The feeding damage caused by the caterpillars on the carnation leaves was scored at weekly intervals.

Cyclocephala immaculata = test: Watering test with beetle larvae (Example 2); type: in vivo; details: for Effect on day 1 in % / Effect on day 4 in % / Effect on day 7 in % / Effect on day 14 in %: L3 larvae, watering, (I-1) 600, azadirachtin 60, (I-1)+azadirachtin 600+60, trichlorfon 4529 g of active compound/ha
From the text: Beetle larvae (grubs) are important lawn pests. On the one hand, they feed on grass roots, damaging them directly, on the other hand they are a favoured food for birds which, searching for grubs, destroy the turf. For treatment against grubs, infested lawns are usually watered with insecticidal compositions. This type of treatment is emulated in the laboratory by Example 2.
To prepare a suitable active compound preparation, a commercial formulation of active compound or active compound combination is mixed with water until the desired concentration is reached. Pots with soil substrate were watered with the following active compound preparations: • 1. untreated • 2. compound (I-1) as SL 200, 600 g of active compound/ha • 3. azadirachtin, 60 g of active compound/ha • 4. compound (I-1) as SL 200+azadirachtin, 600+60 g of active compound/ha • 5. positive control: trichlorfon 4529 g of active compound/ha
L3 larvae of Cyclocephala immaculata were placed onto the pots. After 1, 4, 7, 14 days, the survival rate was determined, and this was used to calculate the efficacy of the compositions. 100% means that all grubs were killed, 0% means no activity.

[1] = test system: Trialeurodes vaporariorum; test: Whiteflies on tomatoes, further test (Example 6); type: in vivo
Experimental: This example describes a further test with the formulation according to the invention against whiteflies (Trialeurodes vaporariorum) on tomatoes (Lycopersicon esculentum). The test was carried out under GEP according to EPPO guideline PP 1/36(2) with 4 repetitions of in each case 5 plants. At the start of the infection, the plants were treated as follows: • 1. untreated • 2. compound (I-1) as SL 200 (compound according to formula (I-1), 17% strength), 50 g of active compound/ha • 3. azadirachtin 15 g of active compound/ha, NeemAzal® • 4. azadirachtin 5 g of active compound/ha, NeemAzal® 5. compound (I-1) as SL 200+azadirachtin, 50+15 g of active compound/ha • 6. compound (I-1) as SL 200+azadirachtin, 50+5 g of active compound/ha • 7. positive control imidacloprid 100 g of active compound/ha
The spray solution was prepared by mixing commercial formulations and using water to adjust to the concentration mentioned. The application rate was 1000 l/ha. 2 applications were carried out at intervals of 10 days. The number of adult flies and the number of larvae were scored on days 2 to 32 after the first application. What is shown is the effect of the products, which becomes evident in a reduction of the number of insects or larvae compared to the untreated control. Imidacloprid was also tested, as positive control.

Plutella xylostella = test: Diamondback moth bioassay on Savoy cabbage leaf discs (Example 9); type: in vivo
Experimental: Example 9 also describes the effect of the combination according to the invention on caterpillars of diamondback moth Plutella xylostella on Savoy cabbage. The plants were grown in a greenhouse, and five plants each were treated as follows: The spray solution was prepared by mixing commercial formulations and using water to adjust to the concentration mentioned. The application rate was 1000 l/ha. • 1. untreated • 2. compound (I-1) as SL 200 (compound according to formula (I-1), 17% strength), 50 g of active compound/ha • 3. azadirachtin 30 g of active compound/ha, NeemAzal® • 4. azadirachtin 15 g of active compound/ha, NeemAzal® • 5. azadirachtin 5 g of active compound/ha, NeemAzal® • 6. compound (I-1) as SL 200+azadirachtin, 50+30 g of active compound/ha • 7. compound (I-1) as SL 200+azadirachtin, 50+15 g of active compound/ha • 8. compound (I-1) as SL 200+azadirachtin, 50+5 g of active compound/ha • 9. positive control imidacloprid 100 g of active compound/ha
The plants were incubated under greenhouse conditions (20° C., 70% relative atmospheric humidity), the plants being placed at random. After 3 days, the first leaf samples were taken. Here, 5 leaves were picked from each plant. 10 leaf discs of a diameter of 6 cm were punched from the leaves and placed in Petri dishes covered with moistened filter paper. Once the leaf discs had been placed into the Petri dishes, 5 Plutella xylostella larvae of the L2 instar were added. The Petri dishes were placed on a tablett, covered with a dark film and kept at 20° C. in the laboratory. Evaluation was carried out on days 9, 14 and 21 after the addition of the larvae, the number of surviving animals being scored.
What is shown is the effect of the products, which becomes evident in a reduction of the number of diamondback moths compared to the untreated control.

Phaedon cochleariae = Phaedon cochleariae larvae test (Example 3); details: cabbage leaves sprayed, (I-1) 120 g of ai/ha, Azadirachta indica 20%, combination 120 g + 20%
[2] = Day 2, (I-1) 50, azadirachtin 15, (I-1)+azadirachtin 50+15, imidacloprid 100 g/ha
[3] = Day 7, (I-1) 50, azadirachtin 15, (I-1)+azadirachtin 50+15, imidacloprid 100 g/ha
[4] = Day 14, (I-1) 50, azadirachtin 15, (I-1)+azadirachtin 50+15, imidacloprid 100 g/ha
[5] = Day 21, (I-1) 50, azadirachtin 15, (I-1)+azadirachtin 50+15, imidacloprid 100 g/ha
[6] = Days 28-32, (I-1) 50, azadirachtin 15, (I-1)+azadirachtin 50+15, imidacloprid 100 g/ha
[7] = Day 9, (I-1) 50, azadirachtin 30, (I-1)+azadirachtin 50+30, imidacloprid 100 g/ha
[8] = Day 14, (I-1) 50, azadirachtin 30, (I-1)+azadirachtin 50+30, imidacloprid 100 g/ha
[9] = Day 21, (I-1) 50, azadirachtin 30, (I-1)+azadirachtin 50+30, imidacloprid 100 g/ha
[10] = Day 2, azadirachtin 5, (I-1)+azadirachtin 50+5 g/ha
[11] = Day 7, azadirachtin 5, (I-1)+azadirachtin 50+5 g/ha
[12] = Day 14, azadirachtin 5, (I-1)+azadirachtin 50+5 g/ha
[13] = Day 21, azadirachtin 5, (I-1)+azadirachtin 50+5 g/ha
[14] = Days 28-32, azadirachtin 5, (I-1)+azadirachtin 50+5 g/ha

SMILES | Day 7 reduction of feeding damage in % (Spodoptera exigua) [%] | Day 32 reduction of feeding damage in % (Spodoptera exigua) [%] | Day 40 reduction of feeding damage in % (Spodoptera exigua) [%] | Effect on day 1 in % (Cyclocephala immaculata) [%] | Effect on day 4 in % (Cyclocephala immaculata) [%] | Effect on day 7 in % (Cyclocephala immaculata) [%] | Effect on day 14 in % (Cyclocephala immaculata) [%] | Activity against adults [%] [1, 2] [%] | Activity against larvae [%] [1, 2] [%] | Activity against adults [%] [1, 3] [%] | Activity against larvae [%] [1, 3] [%] | Activity against adults [%] [1, 4] [%] | Activity against larvae [%] [1, 4] [%] | Activity against adults [%] [1, 5] [%] | Activity against larvae [%] [1, 5] [%] | Activity against adults [%] [1, 6] [%] | Activity against larvae [%] [1, 6] [%] | Activity against Plutella xylostella [%] (Plutella xylostella; [7]) | Activity against Plutella xylostella [%] (Plutella xylostella; [8]) | Activity against Plutella xylostella [%] (Plutella xylostella; [9]) | further results
O=C1C=C(N(Cc2ccc(Cl)nc2)CC(F)F)CO1 [(I-1), 4-{[(6-chloropyrid-3-yl)methyl](2,2-difluoroethyl)amino}furan-2(5H)-one] | 0 | 49 | 88 | 0 | 28 | 0 | 29 | 86 | 0 | 88 | 0 | 93 | 18 | 96 | 4 | 67 | 68 | 0 | 21 | 34 | Kill in % after 1d (found) (Phaedon cochleariae): 15%
C/C=C(\C)C(=O)O[C@H]1C[C@@H](OC(C)=O)[C@@]2(C(=O)OC)CO[C@H]3[C@@H](O)[C@@](C)([C@]45O[C@@]4(C)[C@H]4C[C@@H]5O[C@@H]5OC=C[C@@]54O)[C@H]4[C@]1(CO[C@]4(O)C(=O)OC)[C@@H]32 [azadirachtin] | 0 | 92 | 100 | 0 | 0 | 0 | 7 | 57 | 0 | 64 | 0 | 65 | 20 | 76 | 32 | 76 | 37 | 46 | 72 | 25 | effect on grubs (Cyclocephala immaculata; entire duration of the test, azadirachtin 60 g of active compound/ha): no effect; Activity against adults [%] [1, 10]: 41%; Activity against larvae [%] [1, 10]: 0%; Activity against adults [%] [1, 11]: 41%; Activity against larvae [%] [1, 11]: 0%; Activity against adults [%] [1, 12]: 40%; Activity against larvae [%] [1, 12]: 0%; Activity against adults [%] [1, 13]: 47%; Activity against larvae [%] [1, 13]: 0%; Activity against adults [%] [1, 14]: 40%; Activity against larvae [%] [1, 14]: 0%; Activity against Plutella xylostella [%] (Plutella xylostella; Day 9, azadirachtin 5, (I-1)+azadirachtin 50+5 g/ha): 0%; Activity against Plutella xylostella [%] (Plutella xylostella; Day 9, azadirachtin 15, (I-1)+azadirachtin 50+15 g/ha): 18%; Activity against Plutella xylostella [%] (Plutella xylostella; [12]): 15%; Activity against Plutella xylostella [%] (Plutella xylostella; Day 14, azadirachtin 15, (I-1)+azadirachtin 50+15 g/ha): 31%; Activity against Plutella xylostella [%] (Plutella xylostella; [13]): 25%; Activity against Plutella xylostella [%] (Plutella xylostella; Day 21, azadirachtin 15, (I-1)+azadirachtin 50+15 g/ha): 38%
O=[N+]([O-])NC1=NCCN1Cc1ccc(Cl)nc1 [imidacloprid] | 0 | 97 | 100 | – | – | – | – | 91 | 0 | 96 | 57 | 98 | 70 | 99 | 68 | 91 | 94 | 43 | 36 | 41 | Day 25 reduction of feeding damage in % (Spodoptera exigua; Day 25, (I-1) 150, azadirachtin 30, (I-1)+azadirachtin 150+30, imidacloprid 100 g of active compound/ha): 100%
